One may read the inhibition as the share of the control response that was lost under treatment. Higher therefore signals a response far below the control.

The source of these data is patent US20040122044A1, “Utilization of substituted imidazo [1,2-A]-pyridin-3-yl-amide and imidazo [1,2-A]-pyridin-3-yl-amine compounds in pharmaceutical formulations” (priority 2001, published 2004).

This assay concerns the target T1, NO synthase (Rattus norvegicus, UniProt P29476).
T1 construct: the tissue was broken down with a Polytron homogenizer for 1 min at 6,000 rpm; from tissue; host or cells: rat cerebellum, 20,000 g supernatant of homogenate
Nature of the assay: HTS NO synthase assay. It counts as biochemical. The following applies: enzyme preparation from rat cerebelli, [3H]arginine substrate. As for the experimental part: This assay allows the determination of the percentage inhibition of NO synthase by a compound of formula I according to the invention by measurement of the NO synthase activity in the presence of the compound. In this procedure, NO synthase is mixed together with radioactively labelled arginine and the particular compound of formula I under suitable conditions. After interruption of the NO formation reaction at a given point in time, the amount of unreacted arginine is determined directly or indirectly. […]
In this HTS NO synthase assay, radioactive arginine is used as the substrate. […] With the aid of this procedure, the arginine substrate which remains is bonded to the cation exchanger, while the radioactive citrulline formed enzymatically is washed out quantitatively. After drying of the filter MTP and addition of scintillation liquid, the bound arginine can be counted on a scintillation counter. An NO synthase reaction which has not been inhibited is reflected in a low radioactivity. […] That is to say a high radioactivity is found on the filter. […]
The plate was then dried for 1 hour at 60° C. in a drying cabinet. […] After a waiting time of 1 hour, the plate was measured on a β-counter.

As for `Cc1ccn2c(N)c(-c3ccsc3)nc2c1` [Example 1, 7-Methyl-2-thiophen-3-yl-imidazo[1,2-a]pyridin-3-ylamine], the inhibition at 10 µM is 89%.
